Source: patent publication US6043283A, “Tyramine compounds and their neuronal effects” (priority 1997, dated 2000)
“Also recorded” adds a separate entry of the source.

Tests used:
NTox = assay: protection of neurons against isolated NTox applied directly; type: cell-based
[1] = test system: human microglia stimulated with S5; type: cell-based;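 note: drugs applied at 10 µM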
[2] = test system: Aβ1-42-stimulated microglia; type: cell-based, rat
Procedure, shortened: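 E18 rat hippocampal cultures, microglia depleted with saporin–ac-LDL (10 μg/ml, 12 h) on day 14, then given test substances at 10μM with or without exogenous microglia (100,000 cells) for 72 h. Neurons immunostained (NF plus MAP-2) and nuclei counted by fluorescence microscopy; survival expressed as % of parallel untreated controls.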

quinolinic acid (QUIN) = assay: protection of neurons against quinolinic acid; type: cell-based; conditions: QUIN (100 μM in FIG. 13)
Description: (§1) FIG. 32 is a graph showing the specificity of tyramine compounds to NTox. […]

AMAA = assay: protection of neurons against AMAA; type: cell-based; conditions: FIG. 32
Description: as §1

[3] = test system: HEK cells expressing NMDA1b/2A; assay: NTox killing of HEK cells expressing NMDA receptors, trypan blue; type: cell-based, human; conditions: 1 nM NTox, 24 hours
Description: Photomicrograph of trypan blue(+) control HEK cells exposed to NTox. Few blue, dead cells are noted.

NMDA receptor = assay: whole cell current elicited by NMDA in Xenopus oocytes injected with NMDA R1 and R2 subunit cRNAs; type: cell-based; conditions: FIG. 34
Description: FIG. 34 is a graph shorting the % maximal current peak elicited by NMDA, octopamine and tyramine compounds in the presence of a given NMDA concentration. […].
The precise mechanism of NTox that leads to the destruction of neurons is only partially characterized. Based upon extensive testing with receptor antagonists, it has been discovered that two classes of neurotransmitter receptors are involved--the n-methyl D-aspartate (NMDA) class of […] receptors and the Muscarinic (M receptors) class of cholinergic receptors. […] […]. Further study to determine if tyramine compounds act upon the NMDA receptor itself involved expression of the NMDA receptor complex in Xenopus oocytes and measurement of ionic fluxes across the oocyte membrane that are elicited by NMDA. […] […]. […] Thus, tyramine compounds appear to have several actions, one of which is upon the NMDA receptor.

kidney cells = assay: competition with microspheres coupled to Aβ1-42, kidney cells; type: binding; conditions: 4 hours at 37° C.
microglia = assay: inhibition of SpheresAβ1-42 binding to microglia; design: species or system rat; conditions: 10 μmoles/l, 4 hours, 37° C.
[4] = test system: plaque-stimulated microglia; assay: blocking of plaque-induced microglial neurotoxicity; type: cell-based, rat; conditions: FIG. 16C
macrophages = assay: competition with microspheres coupled to Aβ1-42, macrophages; type: binding; conditions: 4 hours at 37° C.
rat microglia = assay: binding of Aβ-coupled microspheres to microglia; conditions: 4 hours at 37° C. (72 h in FIG. 23)
hippocampal neurons = type: cell-based, rat; conditions: 100 μmoles/l
astroglia = type: cell-based, rat; conditions: 100 μmoles/l
Description: FIGS. 21A-D display toxic actions of synthetic Aβ peptides upon neurons. […]. There is, however, a generalized cytotoxic action by Aβ25-35 at>30 μmoles/l on both neurons (FIG. 21A) and astroglia (FIG. 21B). In the absence of microglia, none of the Aβ peptides (at 1 μmole/l) produce destruction of neurons. […] These observations point to the need to deplete neuron cultures of microglia when assessing mechanisms of Aβ toxicity. […]; FIG. 21E).
. Briefly, hippocampal cells obtained from embryonic stage 18 rat fetuses were dispersed mechanically in the presence of 0.125% trypsin and plated onto poly-L-lysine coated glass coverslips in 24 well plates at 250,000 cells per well (resulting in adhering cell densities of about 1250 cells per mm^2) in chemically-defined N2 culture media containing 5% fetal bovine serum. Gradual reduction of serum began on day 10 in vitro with daily 1:1 volume replacements with chemically-defined media, until a final concentration of 0.6% serum was achieved. […]
On day 14 of culture, immediately following saporin treatment, test substances were added to the hippocampal cultures. […] Immuno-labeled cells per field and nuclei per field were scored at 200X magnification using fluorescence microscopy. Data were expressed as % mean survival expressed in terms of parallel untreated control cultures after scoring at least 20 randomly selected fields for each of 3 coverslips.

[5] = type: physicochemical; conditions: chemically defined culture media, 37° C.; Table 2
Description: Solubility of peptides is described for chemicallydefined culture media a […]

Row | Compound | neuroprotective effects against NTox, concentration range (NTox) [nM] | inhibition of killing action of NTox applied to neurons (NTox; isolated NTox, FIGS. 13, 32) | drug blockade of neuron killing, human microglia [1] | drug blockade of neuron killing, rat microglia [2] | protection against quinolinic acid (quinolinic acid (QUIN)) | protection against AMAA (AMAA) | blocking of NTox killing [3] | effect on current elicited by NMDA (NMDA receptor) | competition with Aβ1-42 microspheres, kidney cells (kidney cells) | inhibition of SpheresAβ1-42 binding by peptides (microglia) | blocking of plaque-induced microglial toxicity by peptides [4] | blocking of Aβ1-42 induced microglial neurotoxicity by peptides ([2]; 10 μmoles/liter peptide, 1 μmole/liter Aβ1-42) | IC50 ([2]; read-out: ED50 (blocking of Aβ1-42 induced neurotoxicity), FIG. 16B) [nM] | competition with Aβ1-42 microspheres, macrophages (macrophages) | binding of peptide-coupled microspheres to microglia (rat microglia) | destruction of neurons (hippocampal neurons) [%] | destruction of glia (astroglia) [%] | Solubility [5]
1 | C[C@]12N[C@H](Cc3ccccc31)c1ccccc12 [MK-801] | ~100 | NTox can be blocked | blocked neuron death | prevented neuronal loss; also recorded: blocked neuron death | prevented from killing neurons | prevented from killing neurons | could be blocked | could be blocked | – | – | – | – | – | – | – | – | – | –
2 | Aβ10-16: Aβ peptide residues 10-16 (YEVHHQK; Amyloid-beta protein 42; UniProt P05067 681-687, looked up, fragment) | – | – | – | – | – | – | – | – | no changes in binding | effectively prevented | blocked plaque-induced toxicity in vitro | blocked neurotoxin production | ~30 | competition occurs with the macrophages in a dose dependent manner | readily bind; also recorded: able to bind to microglia | – | – | –
3 | Aβ25-35: Aβ peptide residues 25-35 (GSNKGAIIGLM; Amyloid-beta protein 42; UniProt P05067 696-706, looked up, fragment) | – | – | – | – | – | – | – | – | – | – | – | – | – | – | little cell binding | ~90 | ~90 | soluble
